These results are taken from patent US9169217B2, “Arylalkyl esters of 4-amino-6-(substituted phenyl)-picolinates and 6-amino-2-(substituted phenyl)-pyrimidinecarboxylates and their use as selective herbicides for crops” (Dow AgroSciences LLC, priority 2011, dated 2015).

Where only a bound is given, the exact number is not on record here.

Holding throughout (assay type): in vivo
Assay [1] relates to Echinochloa colonum (L.) LINK (junglerice). Put plainly: Postemergence foliar-applied herbicidal activity in direct seeded rice (Example 16). Particulars: for pest or weed control at 8.75 g/ha: Echinochloa colona, post-emergence, 504 h, rice cropping systems, 8.75 g ae/ha, 21 DAA, may represent multiple trials, read-out: Visual Injury (%) ECHCO; for GR50 / GR80 / GR90: ECHCO, probit analysis; for GR50: 50% growth reduction; for GR80: 80% growth reduction; for GR90: 90% growth reduction. The procedure, abridged:
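Greenhouse plants at 2nd–3rd true leaf stage (10–17 d, ~29/26 °C, 14-h photoperiod) sprayed postemergence with ester forms in acetone–DMSO plus 1.25% crop oil concentrate at 187 L/ha. Visual injury scored 0–100% versus untreated plants after 3 weeks; GR50/GR80 derived by probit analysis.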

Assay [2] concerns Leptochloa chinensis (L.) NEES (Chinese sprangletop). Put plainly: In-water applied herbicidal activity in transplanted paddy rice (Example 17). Particulars: LEFCH, probit analysis; for GR50: 50% growth reduction; for GR80: 80% growth reduction; for GR90: 90% growth reduction. The procedure, abridged:
(§1)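 Ester forms of test compounds, in acetone diluted with aqueous Agri-dex (final 1.25% v/v crop oil concentrate), were injected into the flood water of paddy pots holding weeds or rice at the 2nd–3rd leaf stage in mud (pH ~7.3–7.8). Visual injury versus untreated plants was scored 0–100% after 3 weeks in greenhouse (~29/26 °C). GR50/GR80 were derived by probit analysis.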

The subject of assay [3] is Cyperus rotundus L. (purple nutsedge). The assay is described as above. Particulars: rice cropping systems, 35 g ae/ha, 21 DAA, may represent multiple trials. The method, boiled down:
as §1

Consider `Nc1c(F)c(-c2ccc(C3CC3)cc2)nc(C(=O)OCc2ccccc2)c1Cl` [Compound 42, benzyl 4-amino-3-chloro-6-(4-cyclopropylphenyl)-5-fluoropicolinate], for which the pest or weed control at 8.75 g/ha in assay [1] came to 85%.

For the molecule `COc1c(Cl)ccc(-c2nc(C(=O)OCc3ccccc3)c(Cl)c(N)c2F)c1F` [Compound 1, benzyl 4-amino-3-chloro-6-(4-chloro-2-fluoro-3-methoxyphenyl)-5-fluoropicolinate], in assay [1], the GR50 is 2.4 g ae/ha, the GR80 is on record as 7.8 g ae/ha and the GR90 was found to be 14.4 g ae/ha. In assay [2], this molecule registered a GR50 of 50.4 g ae/ha, a GR80 of 78.6 g ae/ha and a GR90 of 99.1 g ae/ha.

In the case of `COc1c(Cl)ccc(-c2cc(N)c(Cl)c(C(=O)OCc3ccccc3)n2)c1F` [Compound 39], in assay [3], the “Visual Injury (%) CYPRO” value is on record as 80%.

In the case of `COC(=O)c1nc(-c2ccc(Cl)c(OC)c2F)c(F)c(N)c1Cl` [E, methyl 4-amino-3-chloro-6-(4-chloro-2-fluoro-3-methoxyphenyl)-5-fluoropicolinate, reference compound], in assay [1], the GR50 is less than 4.38 g ae/ha, the GR80 was 14.6 g ae/ha and the GR90 is 55.6 g ae/ha. In assay [2], this molecule yielded a GR50 of 59.9 g ae/ha, a GR80 of 99.4 g ae/ha and a GR90 of 130.0 g ae/ha.

Turning to `COC(=O)c1nc(-c2ccc(C3CC3)cc2)c(F)c(N)c1Cl` [Compound B, methyl 4-amino-3-chloro-6-(4-cyclopropylphenyl)-5-fluoropicolinate], the pest or weed control at 8.75 g/ha in assay [1] is 50%.

Consider `COC(=O)c1nc(-c2ccc(Cl)c(OC)c2F)cc(N)c1Cl` [Compound G, methyl 4-amino-3-chloro-6-(4-chloro-2-fluoro-3-methoxyphenyl)picolinate, reference compound], for which, in assay [3], the “Visual Injury (%) CYPRO” value is 47%.
